Results taken from patent US20160355483A1, “COMPOUND BINDING TO PPARG BUT NOT ACTING AS PROMOTER AND PHARMACEUTICAL COMPOSITION FOR TREATING PPARG-RELATED DISEASES CONTAINING SAME AS ACTIVE INGREDIENT” (Hyundai Pharm Co., Ltd., priority 2014, published 2016).
Entries after “also recorded” stand apart in the source; their conditions may differ.

Tests used:
[1] = molecular target: T1, CYP 2C9 (Homo sapiens, UniProt P11712); assay: CYP (cytochrome P450)-suppressing effect, Invitrogen Vivid kit; assay type: in vitro ADME
T1 construct: purchased Invitrogen P2861
T1 sequence (P11712 whole entry): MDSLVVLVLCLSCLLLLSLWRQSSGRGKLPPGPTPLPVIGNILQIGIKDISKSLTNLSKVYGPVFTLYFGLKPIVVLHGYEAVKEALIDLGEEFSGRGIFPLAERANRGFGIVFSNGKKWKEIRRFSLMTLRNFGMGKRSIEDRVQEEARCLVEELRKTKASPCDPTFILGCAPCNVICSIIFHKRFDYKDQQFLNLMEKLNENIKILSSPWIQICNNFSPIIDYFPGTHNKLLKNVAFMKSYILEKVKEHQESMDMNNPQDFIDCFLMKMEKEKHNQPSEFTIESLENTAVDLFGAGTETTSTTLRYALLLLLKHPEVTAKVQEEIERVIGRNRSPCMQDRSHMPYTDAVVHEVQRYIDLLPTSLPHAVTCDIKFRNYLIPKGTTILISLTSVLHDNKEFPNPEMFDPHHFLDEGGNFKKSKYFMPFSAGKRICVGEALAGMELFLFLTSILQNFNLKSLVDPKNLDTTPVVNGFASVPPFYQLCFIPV
Protocol: (§1) To evaluate the CYP (cytochrome P450)-suppressing activity of the compounds prepared in the examples of the invention, the following experiment was performed.
(§2) The analysis of CYP1A2, 2C19, and 3A4 suppressing activity was performed by using a BD GENTEST (459100, 459400, and 459500) kit, and the analysis of CYP 2C9- and 2D6-suppressing activity was performed by using an Invitrogen (P2861 and P2862) kit.
(§3) When the Invitrogen kit was used, the compounds of the present invention were diluted in Vivid CYP450 reaction buffer (1×) at the final concentration of 2.5×. The P450 BACULOSOMES sample and Regeneration system (100×) were diluted in Vivid CYP450 reaction buffer (1×) at different proper concentrations. 80 μL of the compound of the invention (2.5×) and […] of the diluted P450 BACULOSOMES sample mixture were mixed in a U-bottom 96-well plate, followed by pre-incubation for 10 minutes. Vivid CYP450 Substrate and NADP+ (100×) were diluted in Vivid CYP450 reaction buffer (1×) at a desired concentration, respectively, according to their corresponding types of CYP450 and substrates. 20 μL of Substrate-NADP+ mix was loaded in the plate when the pre-incubation had been completed, followed by reaction for 1 hour. Upon completion of the reaction, the reaction mixture was transferred in a white plate and fluorescent wavelength was measured with a microplate reader (2C9 excitation 415 nm, emission 460 nm, 2D6 excitation 400 nm, emission 502 nm).
(§4) The test results were calculated by the following formula:
(§5) (1−(fluorescence value of the test material/fluorescence value of the vehicle))×100%.

[2] = molecular target: T2, CYP 2D6 (Homo sapiens, UniProt P10635); assay: as above; assay type: in vitro ADME
T2 construct: purchased Invitrogen P2862
T2 sequence (P10635 whole entry): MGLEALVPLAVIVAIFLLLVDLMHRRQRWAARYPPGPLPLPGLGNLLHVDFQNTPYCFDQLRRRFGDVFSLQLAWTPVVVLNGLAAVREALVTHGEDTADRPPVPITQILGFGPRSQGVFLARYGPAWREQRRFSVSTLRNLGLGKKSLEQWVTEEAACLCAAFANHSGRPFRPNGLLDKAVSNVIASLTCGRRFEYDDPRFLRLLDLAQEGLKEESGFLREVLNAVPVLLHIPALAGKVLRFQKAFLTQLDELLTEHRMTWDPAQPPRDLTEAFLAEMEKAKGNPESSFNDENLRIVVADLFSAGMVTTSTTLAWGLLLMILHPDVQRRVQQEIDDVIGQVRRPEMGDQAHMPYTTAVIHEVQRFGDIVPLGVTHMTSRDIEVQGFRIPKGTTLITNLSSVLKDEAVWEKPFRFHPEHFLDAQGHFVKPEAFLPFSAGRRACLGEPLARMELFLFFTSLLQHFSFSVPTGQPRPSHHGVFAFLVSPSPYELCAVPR
Protocol: as §1, §2, §3, §4, §5

[3] = molecular target: T3, CYP 3A4 (Homo sapiens, UniProt P08684); assay: CYP (cytochrome P450)-suppressing effect, BD GENTEST kit; assay type: in vitro ADME
T3 construct: purchased BD GENTEST 459500
T3 sequence (P08684 whole entry): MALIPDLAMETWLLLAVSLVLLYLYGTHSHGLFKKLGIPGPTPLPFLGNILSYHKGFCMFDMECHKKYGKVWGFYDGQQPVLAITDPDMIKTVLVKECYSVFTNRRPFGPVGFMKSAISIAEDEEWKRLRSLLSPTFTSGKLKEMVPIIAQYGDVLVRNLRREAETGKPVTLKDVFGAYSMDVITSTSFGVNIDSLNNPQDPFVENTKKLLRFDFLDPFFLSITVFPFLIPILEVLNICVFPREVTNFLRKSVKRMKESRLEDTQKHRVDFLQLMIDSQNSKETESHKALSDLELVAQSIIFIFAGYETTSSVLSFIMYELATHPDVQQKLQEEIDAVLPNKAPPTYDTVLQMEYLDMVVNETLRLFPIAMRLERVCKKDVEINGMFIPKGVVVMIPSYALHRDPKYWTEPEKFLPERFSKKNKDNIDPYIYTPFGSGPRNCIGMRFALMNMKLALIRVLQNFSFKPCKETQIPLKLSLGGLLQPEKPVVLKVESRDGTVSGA
Protocol: as §1, §2
(§6) When the BD GENTEST kit was used, the compounds of the present invention were diluted in acetonitrile at the final concentration of 50×. The NADPH-Cofactor mix was prepared by diluting the Cofactor, G6PDH, and control protein provided by the kit in DW according to the instructed concentration. 4 μL of the compound of the example (50×) was mixed with 96 μL of NADPH-Cofactor mix in a 96-well plate, followed by pre-incubation in a 37° C. incubator for 10 minutes.
(§7) The enzyme/substrate mixture was diluted in the buffer (0.5 M potassium phosphate, pH 7.4) provided by the kit according to the instructed concentration. Each CYP450 enzyme substrate was diluted in DW at a desired concentration respectively according to the corresponding types of CYP450. 100 μL of the enzyme/substrate mixture was loaded in the plate when the pre-incubation had been completed, followed by reaction in a 37° C. incubator for 15 minutes (1A2) and 30 minutes (3A4 and 2C19). Upon completion of the reaction, the mixture was transferred to a white plate, and the fluorescent wavelength was measured with a microplate reader (1A2, 2C19 excitation 410 nm, emission 460 nm; 3A4, excitation 409 nm, emission 530 nm).
as §4, §5

[4] = molecular target: T4, CYP1A2 (Homo sapiens, UniProt P05177); assay: as above; assay type: in vitro ADME
T4 construct: purchased BD GENTEST 459100
T4 sequence (P05177 1-516): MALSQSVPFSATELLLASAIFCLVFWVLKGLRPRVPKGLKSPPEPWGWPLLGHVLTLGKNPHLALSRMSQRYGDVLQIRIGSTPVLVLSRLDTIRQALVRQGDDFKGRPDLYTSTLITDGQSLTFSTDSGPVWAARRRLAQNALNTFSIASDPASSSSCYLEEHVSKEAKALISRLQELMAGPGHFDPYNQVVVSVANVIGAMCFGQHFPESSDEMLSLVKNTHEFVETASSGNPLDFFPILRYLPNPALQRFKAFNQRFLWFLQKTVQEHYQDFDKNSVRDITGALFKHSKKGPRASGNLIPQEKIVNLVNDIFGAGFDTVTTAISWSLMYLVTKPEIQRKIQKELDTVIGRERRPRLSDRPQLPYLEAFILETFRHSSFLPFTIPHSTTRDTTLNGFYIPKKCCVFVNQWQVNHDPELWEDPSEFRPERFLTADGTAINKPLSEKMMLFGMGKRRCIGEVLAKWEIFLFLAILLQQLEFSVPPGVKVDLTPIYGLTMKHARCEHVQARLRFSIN
Protocol: as §1, §2, §6, §7, §4, §5

[5] = molecular target: T5, CYP 2C19 (Homo sapiens, UniProt P33261); assay: as above; assay type: in vitro ADME
T5 construct: purchased BD GENTEST 459400
T5 sequence (P33261 whole entry): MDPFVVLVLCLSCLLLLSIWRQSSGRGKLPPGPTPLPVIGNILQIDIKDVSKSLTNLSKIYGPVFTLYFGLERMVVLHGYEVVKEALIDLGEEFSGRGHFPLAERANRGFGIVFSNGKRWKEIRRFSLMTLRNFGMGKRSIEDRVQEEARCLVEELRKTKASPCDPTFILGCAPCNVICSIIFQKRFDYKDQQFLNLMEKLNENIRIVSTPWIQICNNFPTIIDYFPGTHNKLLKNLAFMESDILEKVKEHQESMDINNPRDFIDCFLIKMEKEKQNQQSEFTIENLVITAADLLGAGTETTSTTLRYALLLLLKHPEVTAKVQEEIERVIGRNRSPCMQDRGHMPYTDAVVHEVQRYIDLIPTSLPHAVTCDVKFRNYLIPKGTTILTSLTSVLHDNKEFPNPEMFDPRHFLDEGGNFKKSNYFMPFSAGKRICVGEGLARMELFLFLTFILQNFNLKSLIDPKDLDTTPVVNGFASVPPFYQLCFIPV
Protocol: as §1, §2, §6, §7, §4, §5

[6] = tested on: CYP isozymes 1A2, 2C9, 2C19, and 2D6; assay: CYP suppression compared with comparative examples (Table 3); assay type: in vitro ADME; details: result in words
Protocol: as §1, §2, §3, §6, §7, §4, §5

[7] = molecular target: T6, PPARG (peroxisome proliferator activated receptor-gamma), GST-PPARG-LBD (Homo sapiens, UniProt P37231); assay: LanthaScreen TR-FRET PPARG Competitive Binding Assay; parameters: key: “+” indicates the degree of the binding activity, and as the number of “+” increases, the binding activity is stronger; ++: “+” indicates the degree of the binding activity, and as the number of “+” increases, the binding activity is stronger; +++: “+” indicates the degree of the binding activity, and as the number of “+” increases, the binding activity is stronger; ++++: “+” indicates the degree of the binding activity, and as the number of “+” increases, the binding activity is stronger; details: degree of binding activity
T6 construct: 15 μL of 5 nM GST-PPARG-LBD and 5 nM Tb-GST-antibody were added; purchased Invitrogen PV4894
T6 sequence (P37231 238-503 limits assumed): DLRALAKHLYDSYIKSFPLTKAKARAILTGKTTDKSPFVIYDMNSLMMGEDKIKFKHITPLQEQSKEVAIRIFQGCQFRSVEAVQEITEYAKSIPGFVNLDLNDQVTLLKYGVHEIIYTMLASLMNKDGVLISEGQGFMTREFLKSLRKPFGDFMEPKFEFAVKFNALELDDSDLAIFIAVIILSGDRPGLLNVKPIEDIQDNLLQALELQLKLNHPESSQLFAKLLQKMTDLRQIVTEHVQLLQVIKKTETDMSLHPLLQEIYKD
In short: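 Ratio of 518 nm to 488 nm time-resolved emission after a 1 h room-temperature incubation, in competition format with GST-PPARG ligand-binding domain. Values are expressed as 100% minus compound-to-vehicle ratio and related to rosiglitazone binding.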

| Compound | CYP(10 μL, %) 2C9 [1] [%] | CYP(10 μL, %) 2D6 [2] [%] | CYP(10 μL, %) 3A4 [3] [%] | CYP(10 μL, %) 1A2 [4] [%] | CYP(10 μL, %) 2C19 [5] [%] | suppression of CYP isozymes 1A2, 2C9, 2C19, and 2D6 compared with SR1664 and SR1824 [6] | Binding assay (1 μLM) [7] |
| --- | --- | --- | --- | --- | --- | --- | --- |
| C[C@H](NC(=O)c1ccc2c(c1)CCCN2Cc1cc(-c2ccccc2C(N)=O)ccc1F)c1ccc([N+](=O)[O-])cc1 [Example 139, (S)-1-((2′-carbamoyl-4-fluoro-[1,1′-biphenyl]-3-yl)methyl)-N-(1-(4-nitrophenyl)ethyl)-1,2,3,4-tetrahydroquinoline-6-carboxamide] | 63.24 | 80.63 | 60.95 | 94.00 | 53.50 | less than the compounds of the comparative examples; also recorded: less strongly than the compounds of the Comparative Examples | +++ |
| C[C@H](NC(=O)c1ccc2c(c1)OCCN2Cc1ccc(-c2ccccc2C(=O)O)cc1)c1ccc(C#N)cc1 [Example 74, (S)-4′-((7-((1-(4-cyanophenyl)ethyl)carbamoyl)-2H-benzo[b][1,4]oxazine-4(3H)-yl)methyl)-[1,1′-biphenyl]-2-carboxylic acid] | 80.68 | 83.97 | 81.98 | 102.89 | 91.36 | less than the compounds of the comparative examples; also recorded: less strongly than the compounds of the Comparative Examples | + |
| C[C@H](NC(=O)c1ccc2c(c1)CCCN2Cc1ccc(-c2ccccc2C(=O)[O-])cc1)c1ccc(C#N)cc1.[Na+] [Example 57, sodium (S)-4′-((6-((1-(4-cyanophenyl)ethyl)carbamoyl)-3,4-dihydroquinoline-1(2H)-yl)methyl)-[1,1′-biphenyl]-2-carboxylate] | 58.87 | 82.59 | 59.17 | 100.32 | 75.69 | less than the compounds of the comparative examples; also recorded: less strongly than the compounds of the Comparative Examples | +++ |
| C[C@H](NC(=O)c1ccc2c(c1)CCCN2Cc1ccc(-c2ccccc2C(=O)O)cc1F)c1ccc(C#N)cc1 [Example 110, (S)-4′-((6-((1-(4-cyanophenyl)ethyl)carbamoyl)-3,4-dihydroquinoline-1(2H)-yl)methyl)-3′-fluoro-[1,1′-biphenyl]-2-carboxylic acid] | 55.18 | 88.44 | 53.03 | 97.28 | 69.53 | less than the compounds of the comparative examples; also recorded: less strongly than the compounds of the Comparative Examples | +++ |
| C[C@H](NC(=O)c1ccc2c(c1)CCCN2Cc1ccc(-c2ccccc2C(N)=O)cc1F)c1ccc2ccccc2c1 [Example 115, (S)-1-((2′-carbamoyl-3-fluoro-[1,1′-biphenyl]-4-yl)methyl)-N-(1-(naphthalene-2-yl)ethyl)-1,2,3,4-tetrahydroquinoline-6-carboxamide] | 63.87 | 95.56 | 77.73 | 97.62 | 59.33 | less than the compounds of the comparative examples; also recorded: less strongly than the compounds of the Comparative Examples | +++ |
| C[C@H](NC(=O)c1ccc2c(c1)CCCN2Cc1ccc(-c2ccccc2C(=O)O)cc1)c1ccc(C#N)cc1 [Example 14, (S)-4′-((6-((1-(4-cyanophenyl)ethyl)carbamoyl)-3,4-dihydroquinoline-1(2H)-yl)methyl)-[1,1′-biphenyl]-2-caboxylic acid] | 64.28 | 86.13 | 71.24 | 97.99 | 79.96 | less than the compounds of the comparative examples; also recorded: less strongly than the compounds of the Comparative Examples | ++ |
| C[C@H](NC(=O)c1ccc2c(c1)OCCN2Cc1ccc(-c2ccccc2C(=O)O)cc1)c1ccccc1 [Example 58, (S)-4′-((7-((1-phenylethyl)carbamoyl)-2H-benzo[b][1,4]oxazine-4(3H)-yl)methyl)-[1,1′-biphenyl]-2-carboxylic acid] | 57.47 | 55.23 | 56.92 | 100.93 | 70.53 | less than the compounds of the comparative examples; also recorded: less strongly than the compounds of the Comparative Examples | + |
| C[C@H](NC(=O)c1ccc2c(c1)CCCN2Cc1cccc(-c2ccccc2C(N)=O)c1F)c1ccc([N+](=O)[O-])cc1 [Example 131, (S)-1-((2′-carbamoyl-2-fluoro-[1,1′-biphenyl]-3-yl)methyl)-N-(1-(4-nitrophenyl)ethyl)-1,2,3,4-tetrahydroquinoline-6-carboxamide] | 52.84 | 86.92 | 55.88 | 94.17 | 54.84 | less than the compounds of the comparative examples; also recorded: less strongly than the compounds of the Comparative Examples | +++ |
